Experimental data taken from PMC10657444, “Design and evaluation of tadpole-like conformational antimicrobial peptides” (Communications Biology, 2023).
In brackets after ≈: the same amount, converted by molar mass. Where two headings read alike, the source gives them in different places.

Test system: MRSA USA 300
Test: microbe, parasite or virus in culture
Type: cell-based, Staphylococcus aureus
Conditions: for MIC: Staphylococcus aureus
Description: MRSA USA 300 and K. pneumoniae ATCC 700603 were employed to assess the development of resistance. From inoculated microtiter panels, an aliquot of the well with the highest concentration permitting growth was taken and back diluted in fresh media to a turbidity of a 0.5 McFarland standard. This suspension was then further diluted and used to inoculate a fresh MIC panel resulting in a final concentration of 5 × 10^6 CFU/mL. Panels were incubated according to CLSI guidelines (M07, 11th edition, 2018), MICs were recorded and the next inoculum was prepared from the well containing the highest concentration of drug that allowed growth in identical fashion as described above.

O=C(O)c1cn(C2CC2)c2cc(N3CCNCC3)c(F)cc2c1=O [ciprofloxacin, reference compound]
MIC (0 h, read-out: Concentration (MIC in drug resistance assay), MRSA USA 300, day 0): 1 µg/mL (≈ 3.02 µM) | MIC (24 h, read-out: Concentration (MIC in drug resistance assay), MRSA USA 300, day 1): 0.5 µg/mL (≈ 1.51 µM) | MIC (48 h, read-out: Concentration (MIC in drug resistance assay), MRSA USA 300, day 2): 1 µg/mL (≈ 3.02 µM) | MIC (72 h, read-out: Concentration (MIC in drug resistance assay), MRSA USA 300, day 3): 1 µg/mL (≈ 3.02 µM) | MIC (96 h, read-out: Concentration (MIC in drug resistance assay), MRSA USA 300, day 4): 2 µg/mL (≈ 6.04 µM) | MIC (120 h, read-out: Concentration (MIC in drug resistance assay), MRSA USA 300, day 5): 1 µg/mL (≈ 3.02 µM) | MIC (144 h, read-out: Concentration (MIC in drug resistance assay), MRSA USA 300, day 6): 1 µg/mL (≈ 3.02 µM) | MIC (168 h, read-out: Concentration (MIC in drug resistance assay), MRSA USA 300, day 7): 2 µg/mL (≈ 6.04 µM) | MIC (192 h, read-out: Concentration (MIC in drug resistance assay), MRSA USA 300, day 8): 4 µg/mL (≈ 12.1 µM) | MIC (216 h, read-out: Concentration (MIC in drug resistance assay), MRSA USA 300, day 9): 4 µg/mL (≈ 12.1 µM) | MIC (240 h, read-out: Concentration (MIC in drug resistance assay), MRSA USA 300, day 10): 2 µg/mL (≈ 6.04 µM) | MIC (264 h, read-out: Concentration (MIC in drug resistance assay), MRSA USA 300, day 11): 1 µg/mL (≈ 3.02 µM) | MIC (288 h, read-out: Concentration (MIC in drug resistance assay), MRSA USA 300, day 12): 4 µg/mL (≈ 12.1 µM) | MIC (312 h, read-out: Concentration (MIC in drug resistance assay), MRSA USA 300, day 13): 2 µg/mL (≈ 6.04 µM) | MIC (336 h, read-out: Concentration (MIC in drug resistance assay), MRSA USA 300, day 14): 2 µg/mL (≈ 6.04 µM) | MIC (360 h, read-out: Concentration (MIC in drug resistance assay), MRSA USA 300, day 15): 2 µg/mL (≈ 6.04 µM) | MIC (384 h, read-out: Concentration (MIC in drug resistance assay), MRSA USA 300, day 16): 2 µg/mL (≈ 6.04 µM) | MIC (408 h, read-out: Concentration (MIC in drug resistance assay), MRSA USA 300, day 17): 2 µg/mL (≈ 6.04 µM) | MIC (432 h, read-out: Concentration (MIC in drug resistance assay), MRSA USA 300, day 18): 2 µg/mL (≈ 6.04 µM) | MIC (456 h, read-out: Concentration (MIC in drug resistance assay), MRSA USA 300, day 19): 2 µg/mL (≈ 6.04 µM) | MIC (480 h, read-out: Concentration (MIC in drug resistance assay), MRSA USA 300, day 20): 4 µg/mL (≈ 12.1 µM) | MIC (504 h, read-out: Concentration (MIC in drug resistance assay), MRSA USA 300, day 21): 2 µg/mL (≈ 6.04 µM) | MIC (528 h, read-out: Concentration (MIC in drug resistance assay), MRSA USA 300, day 22): 2 µg/mL (≈ 6.04 µM) | MIC (552 h, read-out: Concentration (MIC in drug resistance assay), MRSA USA 300, day 23): 2 µg/mL (≈ 6.04 µM) | MIC (576 h, read-out: Concentration (MIC in drug resistance assay), MRSA USA 300, day 24): 2 µg/mL (≈ 6.04 µM) | MIC (600 h, read-out: Concentration (MIC in drug resistance assay), MRSA USA 300, day 25): 2 µg/mL (≈ 6.04 µM) | MIC (624 h, read-out: Concentration (MIC in drug resistance assay), MRSA USA 300, day 26): 4 µg/mL (≈ 12.1 µM) | MIC (648 h, read-out: Concentration (MIC in drug resistance assay), MRSA USA 300, day 27): 2 µg/mL (≈ 6.04 µM) | MIC (672 h, read-out: Concentration (MIC in drug resistance assay), MRSA USA 300, day 28): 2 µg/mL (≈ 6.04 µM) | MIC (696 h, read-out: Concentration (MIC in drug resistance assay), MRSA USA 300, day 29): 2 µg/mL (≈ 6.04 µM) | MIC (read-out: Concentration (MIC in drug resistance assay), MRSA USA 300, day 30): 4 µg/mL (≈ 12.1 µM) | MIC (read-out: Concentration (MIC in drug resistance assay), MRSA USA 300, day 31): 8 µg/mL (≈ 24.1 µM) | MIC (read-out: Concentration (MIC in drug resistance assay), MRSA USA 300, day 32): 32 µg/mL (≈ 96.6 µM) | MIC (read-out: Concentration (MIC in drug resistance assay), MRSA USA 300, day 33): 16 µg/mL (≈ 48.3 µM) | MIC (read-out: Concentration (MIC in drug resistance assay), MRSA USA 300, day 34): 16 µg/mL (≈ 48.3 µM) | MIC (read-out: Concentration (MIC in drug resistance assay), MRSA USA 300, day 35): 16 µg/mL (≈ 48.3 µM) | MIC (read-out: Concentration (MIC in drug resistance assay), MRSA USA 300, day 36): 32 µg/mL (≈ 96.6 µM) | MIC (read-out: Concentration (MIC in drug resistance assay), MRSA USA 300, day 37): 32 µg/mL (≈ 96.6 µM) | MIC (read-out: Concentration (MIC in drug resistance assay), MRSA USA 300, day 38): 32 µg/mL (≈ 96.6 µM) | MIC (read-out: Concentration (MIC in drug resistance assay), MRSA USA 300, day 39): 63 µg/mL (≈ 190 µM) | MIC (read-out: Concentration (MIC in drug resistance assay), MRSA USA 300, day 40): 64 µg/mL (≈ 193 µM) | increase in MIC after 40 passages (serial passage at sub-MIC): 64 fold
